Assay results taken from PubChem BioAssay AID256 (DTP/NCI, 2004).
Where “and” joins values, the source holds several entries; their conditions need not be identical. Equal values may be shown once. Toxic doses and inconclusive results are not listed. How the source made its calls: active means survival T/C of 150% or more; inactive means T/C below 125% in these data.

System: CD2F1 mice, L1210 leukemia ip, survival T/C
Experiment: NCI In Vivo Anticancer Drug Screen. Data for tumor model L1210 Leukemia (intraperitoneal) in CD2F1 (CDF1) mice
Settings: higher = longer survival
Outline: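 Vehicle-treated tumor-bearing mice served as controls (C) for compound-treated mice (T). Reported figure is T divided by C.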

[1] = endpoint: mean survival time, dose: 50.0 mg/kg/injection, schedule: Q04DX003 (ip), vehicle: saline with Tween-80
[2] = endpoint: mean survival time, dose: 100.0 mg/kg/injection, schedule: Q04DX003 (ip), vehicle: saline with Tween-80
[3] = endpoint: mean survival time, dose: 200.0 mg/kg/injection, schedule: Q04DX003 (ip), vehicle: saline with Tween-80
[4] = endpoint: mean survival time, dose: 100.0 mg/kg/injection, schedule: Q01DX001 (ip), vehicle: saline
[5] = endpoint: mean survival time, dose: 200.0 mg/kg/injection, schedule: Q01DX001 (ip), vehicle: saline
[6] = endpoint: mean survival time, dose: 400.0 mg/kg/injection, schedule: Q01DX001 (ip), vehicle: saline
[7] = endpoint: mean survival time, dose: 100.0 mg/kg/injection, schedule: Q01DX009 (ip), vehicle: saline with Tween-80
[8] = endpoint: mean survival time, dose: 200.0 mg/kg/injection, schedule: Q01DX009 (ip), vehicle: saline with Tween-80
[9] = endpoint: mean survival time, dose: 6.25 mg/kg/injection, schedule: Q01DX009 (ip), vehicle: Klucel (hydroxypropylcellulose) (HPC)
[10] = endpoint: mean survival time, dose: 12.5 mg/kg/injection, schedule: Q01DX009 (ip), vehicle: Klucel (hydroxypropylcellulose) (HPC)
[11] = endpoint: mean survival time, dose: 25.0 mg/kg/injection, schedule: Q01DX009 (ip), vehicle: Klucel (hydroxypropylcellulose) (HPC)
[12] = endpoint: mean survival time, dose: 50.0 mg/kg/injection, schedule: Q01DX009 (ip), vehicle: saline with Tween-80
[13] = endpoint: mean survival time, dose: 100.0 mg/kg/injection, schedule: Q01DX001 (ip), vehicle: saline with Tween-80
[14] = endpoint: mean survival time, dose: 200.0 mg/kg/injection, schedule: Q01DX001 (ip), vehicle: saline with Tween-80
[15] = endpoint: mean survival time, dose: 400.0 mg/kg/injection, schedule: Q01DX001 (ip), vehicle: saline with Tween-80
[16] = endpoint: mean survival time, dose: 100.0 mg/kg/injection, schedule: Q01DX009 (ip), vehicle: saline
[17] = endpoint: mean survival time, dose: 200.0 mg/kg/injection, schedule: Q01DX009 (ip), vehicle: saline

Measured: T/C

O=C(O)c1cscn1.O=C(O)c1cscn1.[I][Pt][I]
inactive: endpoint: mean survival time, dose: 3.12 mg/kg/injection, schedule: Q04DX003 (ip), vehicle: distilled water + Tween-80 108 % of control | endpoint: mean survival time, dose: 6.25 mg/kg/injection, schedule: Q04DX003 (ip), vehicle: distilled water + Tween-80 101 % of control | endpoint: mean survival time, dose: 12.5 mg/kg/injection, schedule: Q04DX003 (ip), vehicle: distilled water + Tween-80 104 % of control | endpoint: mean survival time, dose: 25.0 mg/kg/injection, schedule: Q04DX003 (ip), vehicle: distilled water + Tween-80 102 % of control | endpoint: mean survival time, dose: 50.0 mg/kg/injection, schedule: Q04DX003 (ip), vehicle: distilled water + Tween-80 104 % of control | [1] 110 % of control | endpoint: mean survival time, dose: 100.0 mg/kg/injection, schedule: Q04DX003 (ip), vehicle: distilled water + Tween-80 114 % of control | [2] 104 % of control | endpoint: mean survival time, dose: 200.0 mg/kg/injection, schedule: Q04DX003 (ip), vehicle: distilled water + Tween-80 119 % of control | [3] 122 % of control | endpoint: mean survival time, dose: 400.0 mg/kg/injection, schedule: Q04DX003 (ip), vehicle: saline with Tween-80 112 % of control

Cc1ncc(CO)c(C2NOCc3nscc32)c1O (centres undefined)
inactive: endpoint: mean survival time, dose: 18.0 mg/kg/injection, schedule: Q01DX009 (ip), vehicle: Klucel (hydroxypropylcellulose) (HPC) 90 % of control | endpoint: mean survival time, dose: 28.0 mg/kg/injection, schedule: Q01DX009 (ip), vehicle: Klucel (hydroxypropylcellulose) (HPC) 89 % of control

CCOc1ccc([N+](=O)[O-])cc1[N+](=O)[O-]
inactive: endpoint: mean survival time, dose: 25.0 mg/kg/injection, schedule: Q04DX003 (ip), vehicle: saline with Tween-80 93 % of control | [1] 98 % of control | [2] 94 % of control

CCCCN(C)CCNc1cc(C)nc(/N=C(\N)Nc2ccc(Cl)c(Cl)c2)n1
inactive: endpoint: mean survival time, dose: 75.0 mg/kg/injection, schedule: Q01DX001 (ip), vehicle: other 97 % of control

CCOC(=O)C(=O)C(C#N)c1ccccc1 (centres undefined)
inactive: endpoint: mean survival time, dose: 25.0 mg/kg/injection, schedule: Q01DX001 (ip), vehicle: Klucel (hydroxypropylcellulose) (HPC) 92 % of control | endpoint: mean survival time, dose: 50.0 mg/kg/injection, schedule: Q01DX001 (ip), vehicle: Klucel (hydroxypropylcellulose) (HPC) 100 % of control | endpoint: mean survival time, dose: 100.0 mg/kg/injection, schedule: Q01DX001 (ip), vehicle: Klucel (hydroxypropylcellulose) (HPC) 100 % of control and 106 % of control

C1N2CN3CN1CN(C2)C3.[Cl][Pt+2][Cl]
inactive: endpoint: mean survival time, dose: 18.75 mg/kg/injection, schedule: Q04DX003 (ip), vehicle: saline 103 % of control | endpoint: mean survival time, dose: 37.5 mg/kg/injection, schedule: Q04DX003 (ip), vehicle: saline 106 % of control | endpoint: mean survival time, dose: 75.0 mg/kg/injection, schedule: Q04DX003 (ip), vehicle: saline 101 % of control | endpoint: mean survival time, dose: 150.0 mg/kg/injection, schedule: Q04DX003 (ip), vehicle: saline 107 % of control | endpoint: mean survival time, dose: 300.0 mg/kg/injection, schedule: Q04DX003 (ip), vehicle: saline 103 % of control

CC(=O)OC1CCC2(C)C(CCC3(C)C2CC=C2C4CC(C)(C)CCC4(C)CCC23C)C1(C)C (centres undefined)
inactive: [4] 101 % of control | [5] 101 % of control | [6] 101 % of control

CN(C)S(=O)(=O)Oc1ccccc1[N+](=O)[O-]
inactive: [7] 100 % of control | [8] 97 % of control | endpoint: mean survival time, dose: 400.0 mg/kg/injection, schedule: Q01DX009 (ip), vehicle: saline with Tween-80 98 % of control

c1ccc(-c2c3ccccc3c(-c3ccccc3)c3c2ccc2ccccc23)cc1
inactive: [9] 89 % of control | [10] 89 % of control | [11] 91 % of control

O[O][Sn][c]1ccccc1
inactive: [12] 93 % of control | [7] 89 % of control | [2] 100 % of control | [8] 91 % of control | [3] 97 % of control

CCc1c(C)[nH]c2ccc([N+](=O)[O-])cc12
inactive: [12] 103 % of control | [7] 94 % of control | [2] 100 % of control | [8] 97 % of control | [3] 93 % of control

Clc1ccc2nc(C(Cl)(Cl)Cl)nc(NCCN3CCCCC3)c2c1
inactive: [12] 89 % of control | [7] 113 % of control | [8] 97 % of control | [3] 91 % of control

O=C(O)C1=CCCC(O)CC1 (centres undefined)
inactive: [13] 95 % of control | endpoint: mean survival time, dose: 100.0 mg/kg/injection, schedule: Q04DX002 (ip), vehicle: saline with Tween-80 100 % of control | [14] 94 % of control | endpoint: mean survival time, dose: 200.0 mg/kg/injection, schedule: Q04DX002 (ip), vehicle: saline with Tween-80 96 % of control | [15] 95 % of control | endpoint: mean survival time, dose: 400.0 mg/kg/injection, schedule: Q04DX002 (ip), vehicle: saline with Tween-80 103 % of control

CC(C)NCC(O)c1ccc(O)c(O)c1 (centres undefined)
inactive: endpoint: mean survival time, dose: 4.0 mg/kg/injection, schedule: Q01DX009 (ip), vehicle: saline 101 % of control | endpoint: mean survival time, dose: 8.0 mg/kg/injection, schedule: Q01DX009 (ip), vehicle: saline 107 % of control and 109 % of control | endpoint: mean survival time, dose: 16.0 mg/kg/injection, schedule: Q01DX001 (ip), vehicle: saline 96 % of control | endpoint: mean survival time, dose: 16.0 mg/kg/injection, schedule: Q01DX009 (ip), vehicle: saline 107 % of control and 113 % of control | endpoint: mean survival time, dose: 32.0 mg/kg/injection, schedule: Q01DX001 (ip), vehicle: saline 100 % of control | endpoint: mean survival time, dose: 32.0 mg/kg/injection, schedule: Q01DX009 (ip), vehicle: saline 104 % of control and 107 % of control | endpoint: mean survival time, dose: 50.0 mg/kg/injection, schedule: Q01DX001 (ip), vehicle: saline 95 % of control | endpoint: mean survival time, dose: 64.0 mg/kg/injection, schedule: Q01DX001 (ip), vehicle: saline 98 % of control and 102 % of control | endpoint: mean survival time, dose: 64.0 mg/kg/injection, schedule: Q01DX009 (ip), vehicle: saline 121 % of control | [4] 104 % of control | [16] 108 % of control | endpoint: mean survival time, dose: 128.0 mg/kg/injection, schedule: Q01DX001 (ip), vehicle: saline 100 % of control and 105 % of control | endpoint: mean survival time, dose: 178.0 mg/kg/injection, schedule: Q01DX009 (ip), vehicle: saline 112 % of control | [5] 104 % of control | [17] 111 % of control | endpoint: mean survival time, dose: 256.0 mg/kg/injection, schedule: Q01DX001 (ip), vehicle: other 102 % of control | endpoint: mean survival time, dose: 256.0 mg/kg/injection, schedule: Q01DX001 (ip), vehicle: saline 105 % of control | endpoint: mean survival time, dose: 266.0 mg/kg/injection, schedule: Q01DX009 (ip), vehicle: saline 120 % of control | [6] 110 % of control | endpoint: mean survival time, dose: 400.0 mg/kg/injection, schedule: Q01DX009 (ip), vehicle: saline 122 % of control | endpoint: mean survival time, dose: 600.0 mg/kg/injection, schedule: Q01DX009 (ip), vehicle: saline 112 % of control

CCOC(=O)CO
inactive: endpoint: mean survival time, dose: 50.0 mg/kg/injection, schedule: Q01DX009 (ip), vehicle: saline 104 % of control | [16] 93 % of control | [17] 101 % of control

COc1ccc(OC)c(/C=C/c2ccnc3ccccc23)c1
inactive: endpoint: median survival time, dose: 50.0 mg/kg/injection, schedule: Q01DX009 (ip), vehicle: saline with Tween-80 102 % of control | endpoint: median survival time, dose: 100.0 mg/kg/injection, schedule: Q01DX009 (ip), vehicle: saline with Tween-80 101 % of control | endpoint: median survival time, dose: 200.0 mg/kg/injection, schedule: Q01DX009 (ip), vehicle: saline with Tween-80 108 % of control | endpoint: median survival time, dose: 400.0 mg/kg/injection, schedule: Q01DX009 (ip), vehicle: saline with Tween-80 113 % of control

O=S(=O)(c1ccc(N2CCOCC2)cc1)c1ccnc2cc(Cl)ccc12
inactive: [13] 93 % of control | [7] 89 % of control | [14] 101 % of control | [15] 87 % of control

CC1(C)CC(=O)C(CSC(=O)c2ccccc2)C(=O)C1
inactive: endpoint: mean survival time, dose: 3.12 mg/kg/injection, schedule: Q01DX009 (ip), vehicle: Klucel (hydroxypropylcellulose) (HPC) 96 % of control and 100 % of control | [9] 101 % of control and 105 % of control | [10] 103 % of control and 104 % of control | [11] 100 % of control and 105 % of control | endpoint: mean survival time, dose: 50.0 mg/kg/injection, schedule: Q01DX009 (ip), vehicle: Klucel (hydroxypropylcellulose) (HPC) 102 % of control and 106 % of control | endpoint: mean survival time, dose: 100.0 mg/kg/injection, schedule: Q01DX009 (ip), vehicle: Klucel (hydroxypropylcellulose) (HPC) 102 % of control

O=C(O)/C=C\C(=O)Nc1ccc(Cl)cc1Cl
inactive: [7] 103 % of control | [8] 95 % of control
